Laboratory results published in US10239839B2, “Compounds and formulations suitable for radical scavenging” (Solenne BV, priority 2006, dated 2019).
“Also recorded” adds a separate entry of the source.

Legend:
[1] = natural sunlight, chlorobenzene
Procedure: [f] Two beakers were irradiated simultaneously by natural sunlight. Beaker 2 contained a solution of 300.5 mg of adad and 17.9 mg of PCBM in 100 mL of chlorobenzene. This solution was placed in a 250 mL beaker, wrapped with paper and Al-foil to prevent light going through the side of the beaker. […] The resulting solution was put in a brown-glass bottle for transport. The solvent was removed in vacuo and the resulting solid material was analyzed by ^1H NMR spectroscopy as described above.
This solution was placed in a 250 mL beaker, wrapped with paper and Al-foil to prevent light going through the side of the beaker. […] The resulting solution was placed in a brown-glass bottle for transport. Approximately 10 mL of the reaction mixture was filtered and put aside. The remaining amount was concentrated in vacuo and the resulting solid material was analyzed by ^1H NMR spectroscopy as described above.
This solution gave an absorbance of A=0.14 at 646 nm (against neat chlorobenzene).

[2] = UV-Vis absorbance / optical density; format: physicochemical
Procedure: All of these oils show an absorbance (A) at λ=570 nm of A570 less than 0.05 when measuring the neat oil against water, using 1 cm cuvettes as is general practice. The above absorbance profiles were measured by placing the neat oil in the 1 cm path length spectrometer cuvette. […] Olive oil typically has a darker appearance (and is thus more optically dense) than the other oils, and this can be seen in the absorption profile.
In many instances, the concentration of fullerene, fullerene derivative, or fullerene-derived ketolactam desired due to considerations of optimal antioxidant efficacy is higher than can be conveniently measured by standard UV/vis spectroscopy. For concentrated solutions, dilution may be necessary to obtain a proper spectrum in the so-called visible area (λ=400-700 nm). If such concentrated solutions are measured without dilution, A570 may exceed a limit to obtain an accurate measurement, or may even exceed the maximum value that can be measured by the spectrometer. As an example, the spectrum of a concentrated solution of HG2-V2 in grapeseed oil (9.2 mg HG2-V2 dissolved in 3 mL), diluted×10 (v/v) with toluene, is shown in FIG. 8. Here, A570 is 0.24, meaning that without dilution it would give approximately A=2.4. Common UV-Vis spectrometers can usually measure up to A≈5, meaning that for this solution a large part of the spectrum (λ<510 nm) could not have been accurately measured without dilution.
400 mg HG2-V2 was added to 100 g of commercially available liquid grape seed oil and stirred with mechanical stirring for 4 hours at 25 deg. C. The HG2-V2 dissolved to give a clear, dark, amber colored solution of 0.4% (wt.) active in a simple solution. The optical density measured for this solution was over 2 AU/cm, and after 10/1 dilution with toluene was over 0.2.

[3] = Photo-oxidation of adamantylideneadamantane (ad=ad) to monitor ^1O2 formation, sodium lamp; conditions: bubbling air
Description: Excited fullerene, triplet+O2→fullerene+singlet oxygen (^1O2) The ^1O2 thus generated can react with a fullerene, giving an oxidized fullerene, or with other molecules that can react with ^1O2. One such molecule is adamantylideneadamantane (ad=ad), which is known to react with ^1O2, giving a stable 1,2-dioxetane, adamantylideneadamantane peroxide, as the product (J. H. Wieringa et al., Tetrahedron Letters 1972, 2, 169). This reaction is depicted in FIG. 11. This oxidation of ad=ad can be used to monitor the formation of ^1O2 by fullerenes or fullerene derivatives.
In a first set of experiments, Phenyl-C61-Butyric-Acid-Methyl-Ester (PCBM,) and HG2-V1 were compared. […] After reaction overnight, the solvent was removed in vacuo and the residual material analyzed by ^1H NMR. […]
In a second set of experiments, the above reaction was done at a high concentration (20 mg/mL) of ad=ad, this time using CCl4 as the solvent. […] Thus, samples from the reaction can be directly analyzed by ^1H NMR, when diluted with, e.g., CDCl3. […]
Samples of 150-200 μL were taken from the reaction and diluted with ˜400 μL of CDCl3. […] Thus, the formation of adamantylideneadamantane peroxide was monitored over time, by following the appearance of the signal at 2.65 ppm. […]

[4] = Stability of solutions exposed to light and air; format: physicochemical; conditions: dissolved in grape seed oil, darker than parent oil, up to a year
Description: For example, it is known in the art that a dilute solution of C60 in toluene exposed to light and air will undergo approximately 10% or more degradation and loss of the C60 due to epoxidation and subsequent breakdown of the fullerene cage resulting from singlet oxygen generated via photoexcitation of the C60. This can be seen even visually since the decomposed C60 forms a blackish product which settles out of solution.

[5] = Percutaneous absorption study; format: in vitro ADME; conditions: 0.3% (wt.) in grape seed oil
Procedure: [d] A percutaneous absorption study was conducted with 6 fresh viable skin samples from one donor, where 20 times recommended usage level (recommended usage level is 6-8 drops on the face) of a 0.3% (wt.) formulation of HG2-V2 in grape seed oil was used. Analysis by extraction of receptor fluid with toluene and analysis with HPLC-MS (using Buckyprep analytical column) was performed.

[6] = Photo-oxidation of adamantylideneadamantane, UV light source; conditions: compared with α-tocopherol
Procedure: [e] Two beakers were irradiated simultaneously with a UV light source (Philips HB172, fitted with 4 Philips Cleo 15 W luminescent tubes; UV-type 3). Beaker 1 contained a mixture of 301.0 mg of adamantylideneadamantane and 24.9 mg of α-tocopherol (Aldrich, >97%) in 100 mL of chlorobenzene. This solution was placed in a 250 mL beaker, which was wrapped with paper and Al-foil to prevent light going through the side of the beaker. The solution was stirred magnetically and irradiated 7 hours with a UV lamp (Philips HB172, fitted with 4 Philips Cleo 15 W luminescent tubes; UV-type 3), which was mounted horizontally directly above the beakers. The reaction mixture was concentrated in vacuo and the resulting solid material was analyzed by ^1H NMR spectroscopy as described above. […] The ratio of the integrals of unreacted adamantylideneadamantane (at 2.9 ppm) to adamantylideneadamantane peroxide was 90:10.
Beaker 2 contained a mixture of 301.2 mg of adamantylideneadamantane and 25.0 mg of HG2-V2 in 100 mL of chlorobenzene. This solution was placed in a 250 mL beaker, which was wrapped with paper and Al-foil to prevent light going through the side of the beaker. […] The reaction mixture was concentrated in vacuo and the resulting solid material was analyzed by ^1H NMR spectroscopy as described above. […]

erythema = experiment: Erythemal response to 3×MED full spectrum UV light after occluded patches; format: in vivo, human; conditions: 0.3% wt. in grape seed oil, 3×MED 24 hours after treatment, 25 subjects
Procedure: [c] 25 human subjects, for which the minimal erythemal dose (MED) of full spectrum UV light (Solar Light Company's 601-300 Multiport Simulator, emitting light of a Xenon-Shortarc Lamp) had been determined, were treated with 6 occluded patches (on the back) with a formulation of HG2-V2 (0.3% wt.) in grape seed oil. 24 hours after patch treatment, the regions of application were exposed to 3×MED of the same light source. […] This provides evidence that the formulation provided an anti-erythemic effect, since erythema scores for 3×MED should range between 1-3.

[7] = Tagmatarchis et al.; Hauke et al.; cited from earlier work

Molecule: CN(C)c1ccc2nc3ccc(=[N+](C)C)cc-3sc2c1 [MB, methylene blue]
- amount of ^1O2 compared to PCBM on an equal absorption and equimolar basis [1]: 25 times
- net generation of ^1O2 compared to PCBM on an equimolar basis [1]: 250 times
- average optical absorption between 400 nm and 700 nm compared to PCBM [2]: about 10 times

Molecule: Phenyl-C61-Butyric-Acid-Methyl-Ester [PCBM]
- production of adamantylideneadamantane peroxide over time (ratio of peak at 2.65 ppm and signal at 2.88 ppm of ad=ad) ([3]; CCl4, ad=ad 20 mg/mL, 150 W sodium lamp, equal molarity): much faster
- amount of adamantylideneadamantane peroxide formed (^1H NMR signal at 2.65 ppm) ([3]; chlorobenzene, ad=ad 1.5 mg/mL, 400 W sodium lamp, 16.5-17 h): much larger than that formed when using HG2-V1; also recorded: substantial amount

Molecule: 2a-Aza-1,2(2a)-homo-1,9-seco[5,6]fullerene-C60—Ih-1,9-dione,2a-[[4-docosyloxy)-3-methoxyphenyl]methyl] [HG2-V2]
- decomposition on exposure to light and air [4]: reduced amount of decomposition products
- percutaneous absorption ([5]; 20 times recommended usage level, receptor fluid 8 hr and 24 hr): less than 0.004%
- content in receptor fluid (HPLC-MS) ([5]; 8 hr and 24 hr collection points): no HG2-V2 at or above analytical detection limit
- net generation of ^1O2 under UV irradiation, equal weight percentage [6]: less for HG2-V2 than α-tocopherol
- average erythemic response on the erythema response scale (1 = first sign of erythema) (erythema): 0.77
- A570 ([2]; 9.2 mg in 3 mL grapeseed oil, diluted ×10 (v/v) with toluene): 0.24
- A570 without dilution ([2]; 9.2 mg in 3 mL grapeseed oil, extrapolated): ~2.4
- optical density ([2]; 0.4% (wt.) in grape seed oil): over 2 AU/cm
- optical density after 10/1 dilution with toluene ([2]; 0.4% (wt.) in grape seed oil): over 0.2

Molecule: (C59N)2
- ^1O2 quantum yields (in words) [7]: reduced ^1O2 quantum yields

Molecule: C59NH
- ^1O2 quantum yields (in words) [7]: reduced ^1O2 quantum yields
